# DBAASP
# Where “and” joins values, the source holds several entries; their conditions need not be identical. Equal values may be shown once.
# Key:
# Experiment in all cases: ≥ marks a high value that may be exact or a test limit, other limits are often not marked, values filed in µg/mL are converted to µM
# [1] = system: Aspergillus fumigatus Af293
# [2] = system: Candida albicans ATCC 10231
# Candida krusei DSM 70079 = system: Candida krusei DSM 70079
# [3] = system: Candida glabrata ATCC 90030
# [4] = system: Aspergillus flavus PFCC 100
# [5] = system: Aspergillus niger ATCC 9029
# Enterococcus faecalis VR = system: Enterococcus faecalis VR
# [6] = system: Escherichia coli ATCC 25922
# [7] = system: Pseudomonas aeruginosa ATCC 27853
# Pseudomonas aeruginosa = system: Pseudomonas aeruginosa
# [8] = system: Staphylococcus aureus ATCC 29213
# [9] = system: Escherichia coli ATCC BAA-2523
# Enterococcus faecalis = system: Enterococcus faecalis
# [10] = system: Staphylococcus aureus ATCC 43300
# [11] = system: Escherichia coli BL21(DE3)
compound,measurement,setting,value
CC[C@H](C)[C@H](NC(=O)CNC(=O)[C@@H](NC(=O)[C@H](Cc1ccccc1)NC(=O)[C@H](C)NC(=O)[C@H](CCCCN)NC(=O)[C@@H](NC(=O)[C@H](CO)NC(=O)[C@@H](N)CC(C)C)C(C)C)[C@@H](C)O)C(=O)N[C@@H](CCC(N)=O)C(=O)N[C@@H](CC(C)C)C(=O)N[C@@H](CCCN=C(N)N)C(=O)NCC(=O)N[C@H](C(=O)N[C@@H](CS)C(=O)NCC(=O)N[C@H](C(=O)N[C@@H](CCC(=O)O)C(=O)N[C@H](C(=O)N[C@@H](CCCCN)C(=O)N[C@@H](C)C(=O)N[C@@H](CCCN=C(N)N)C(=O)NCC(=O)O)C(C)C)[C@@H](C)CC)C(C)C [LSVKAFTGIQLRGVCGIEVKARG],MIC,[1],6.66 µM
same,MIC,[2],6.66 µM
same,MIC,Candida krusei DSM 70079,6.66 µM
same,MIC,[3],3.33 µM
same,MIC,[4],13.3 µM
same,MIC,[5],6.66 µM
CC(C)C[C@H](NC(=O)[C@@H](N)CCC(N)=O)C(=O)NCC(=O)N[C@@H](CCCN=C(N)N)C(=O)N[C@@H](CCCN=C(N)N)C(=O)N[C@@H](CCCN=C(N)N)C(=O)N[C@@H](Cc1cnc[nH]1)C(=O)N[C@@H](CCCN=C(N)N)C(=O)N[C@@H](CCCN=C(N)N)C(=O)N[C@@H](CCCN=C(N)N)C(=O)N1CCC[C@H]1C(=O)N[C@@H](CO)C(=O)N[C@@H](CCCN=C(N)N)C(=O)N[C@@H](CCCN=C(N)N)C(=O)N[C@@H](CCCN=C(N)N)C(=O)N[C@@H](CCCN=C(N)N)C(=O)N[C@@H](Cc1cnc[nH]1)C(=O)N[C@@H](Cc1c[nH]c2ccccc12)C(=O)O [QLGRRRHRRRPSRRRRHW],MIC,Enterococcus faecalis VR,16 µM
same,MIC,[6],64 µM
same,MIC,[7],> 128 µM
same,MIC,Pseudomonas aeruginosa,128 µM
same,MIC,[8],32 µM
same,MIC,[9],≥ 128 µM
same,MIC,Enterococcus faecalis,≥ 32 µM
same,MIC,[10],16 µM
CC[C@H](C)[C@H](NC(=O)[C@H](CC(C)C)NC(=O)[C@H](CCCN=C(N)N)NC(=O)[C@@H](NC(=O)[C@H](CC(C)C)NC(=O)[C@H](CCCN=C(N)N)NC(=O)[C@@H](N)CCCN=C(N)N)[C@@H](C)CC)C(=O)N[C@@H](CC(C)C)C(=O)N[C@@H](CCCN=C(N)N)C(=O)N[C@@H](CC(C)C)C(=O)N[C@@H](CC(C)C)C(=O)N[C@@H](CCCN=C(N)N)C(N)=O [RRLIRLILRLLR],MIC,[11],4 µM and 8 µM
